The assay concerns the target T1, gastrin receptor (Rattus norvegicus, UniProt P30553).
T1 construct: The stomach was excised and flushed with ca. 1 ml of unbuffered physiological saline solution; from tissue; host or cells: isolated whole stomach of immature rats (ca. 21 days old)
T1 sequence (P30553 1-452): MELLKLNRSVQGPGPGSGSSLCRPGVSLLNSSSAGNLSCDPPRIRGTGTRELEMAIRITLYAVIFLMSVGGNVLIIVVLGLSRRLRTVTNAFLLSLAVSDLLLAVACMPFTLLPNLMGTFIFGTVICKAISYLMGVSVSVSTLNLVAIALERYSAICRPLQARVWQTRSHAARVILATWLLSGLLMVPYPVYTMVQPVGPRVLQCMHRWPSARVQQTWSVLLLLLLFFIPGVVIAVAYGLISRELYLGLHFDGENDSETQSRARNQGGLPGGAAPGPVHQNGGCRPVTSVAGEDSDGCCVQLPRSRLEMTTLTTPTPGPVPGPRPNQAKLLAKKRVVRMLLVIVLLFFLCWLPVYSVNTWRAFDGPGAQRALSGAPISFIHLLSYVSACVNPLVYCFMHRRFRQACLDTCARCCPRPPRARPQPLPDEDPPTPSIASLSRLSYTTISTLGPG
Put plainly: gastrin antagonist activity in immature rat stomach assay (pentagastrin dose-response, acid secretion). Conditions: isolated immature rat stomach, cumulative pentagastrin dose-response curves; for Kb: read-out: Gastrin pKb (converted). How it is done: The compounds of the examples were also tested for gastrin antagonist activity in an immature rat stomach assay. The procedure was as follows:
The oesophagus of immature rats (33-50 g, ca. 21 days old) was ligated at the level of the cardiac sphincter and the duodenal sphincter was cannulated. The stomach was excised and flushed with ca. 1 ml of unbuffered physiological saline solution. The fundus was punctured and cannulated. A further 4-5 ml of unbuffered solution was flushed through the stomach to ensure the preparation was not leaking. The stomach was lowered into a jacketed organ bath containing 40 ml of buffered solution containing 3×10^−8 M 5-methylfurmethide, maintained at 37° and gassed vigorously with 95% O2/5% CO2. The stomach was continuously perfused at a rate of 1 ml min^−1 with unbuffered solution gassed with 100% O2 with the perfusate passing over an internally referenced pH-electrode fixed 12 cm above the stomach.
After 120 min of stabilisation the drugs were added directly to the serosal solution in the organ bath and after a further 60 min cumulative pentagastrin dose-response curves were started. Changes in acid secretion were monitored and the curves analysed according to Black et al., Br. J. Pharmacol., 1985, 86, 581.

Take `O=C(O)C=Cc1cc(NC(=O)c2nc(C3CCCCC3)[nH]c2CCC23CC4CC(CC(C4)C2)C3)ccc1Cl` [Example 269, 3-(5-{[5-(2-Adamantan-1-yl-ethyl)-2-cyclohexyl-1H-imidazole-4-carbonyl]-amino}-2-chloro-phenyl)-acrylic Acid]: the Kb is 0.933 µM.

Take `N#Cc1ccccc1-c1nc(C(=O)Nc2cccc(C(=O)O)c2)c(COC23CC4CC(CC(C4)C2)C3)[nH]1` [Example 306, 3-{[5-(Adamantan-1-yloxymethyl)-2-(2-cyano-phenyl)-1H-imidazole-4-carbonyl]-amino}-benzoic Acid]: the Kb was 0.0589 µM. In the case of `CC1(c2nc(C(=O)Nc3cccc(C(=O)O)c3)c(COC34CC5CC(CC(C5)C3)C4)[nH]2)CCCCC1` [Example 303, 3-{[5-(Adamantan-1-yloxymethyl)-2-(1-methyl-cyclohexyl)-1H-imidazole-4-carbonyl]-amino}-benzoic Acid], the Kb was 0.0117 µM.

`CC(C)(C(=O)O)c1cccc(NC(=O)c2nc(C3CCCCC3)[nH]c2CCC23CC4CC(CC(C4)C2)C3)c1` [Example 256, 2-(3-{[5-(2-Adamantan-1-yl-ethyl)-2-cyclohexyl-1H-imidazole-4-carbonyl]-amino}-phenyl)-2-methyl-propionic Acid]: the Kb was 0.708 µM.

For `O=C(O)c1cccc(NC(=O)c2nc(C3CCC=CCC3)[nH]c2COC23CC4CC(CC(C4)C2)C3)c1` [Example 230, 3-{[5-(Adamantan-1-yloxymethyl)-2-cyclohept-4-enyl-1H-imidazole-4-carbonyl]-amino}-benzoic Acid], the Kb is 0.00617 µM. Take `O=C(O)c1cccc(NC(=O)c2nc(C3CC4C=CC3C4)[nH]c2COC23CC4CC(CC(C4)C2)C3)c1` (racemic) [Example 234, (±)-endo-3-{[5-(Adamantan-1-yloxymethyl)-2-bicyclo[2.2.1]hept-5-en-2-yl-1H-imidazole-4-carbonyl]-amino}-benzoic Acid]: the “Gastrin pKb” value is 8.71.

For `Cc1ccccc1-c1nc(C(=O)Oc2cccc(C(=O)O)c2)c(CCC23CC4CC(CC(C4)C2)C3)[nH]1` [Example 281, 5-(2-Adamantan-1-yl-ethyl)-2-o-tolyl-1H-imidazole-4-carboxylic Acid 3-carboxy-phenyl Ester], the Kb is 2.09 µM.

Consider `O=C(O)c1cc(NC(=O)c2nc(C34CCC(CC3)CC4)[nH]c2CCC23CC4CC(CC(C4)C2)C3)ccc1F` [Example 213, 5-{[5-(2-Adamantan-1-yl-ethyl)-2-bicyclo[2.2.2]oct-1-yl-1H-imidazole-4-carbonyl]-amino}-2-fluoro-benzoic Acid], for which the Kb was 0.0759 µM. With `O=C(O)CCc1cc(NC(=O)c2nc(C3CCCCC3)[nH]c2CCC23CC4CC(CC(C4)C2)C3)ccc1Cl` [Example 271, 3-(5-{[5-(2-Adamantan-1-yl-ethyl)-2-cyclohexyl-1H-imidazole-4-carbonyl]-amino)-2-chloro-phenyl)-propionic Acid], the Kb is 0.355 µM. As to `Cc1ccc(NC(=O)c2nc(C3CCCCC3)[nH]c2CCC23CCC(CC2)CC3)cc1C(=O)O` [Example 176, 5-{[5-(2-Bicyclo[2.2.2]oct-1-yl-ethyl)-2-cyclohexyl-1H-imidazole-4-carbonyl]-amino}-2-methyl-benzoic Acid], the Kb is 0.00661 µM. On the same count and under the same terms, the same measure for `O=C(O)CC(=O)Nc1cccc(NC(=O)c2nc(C3CCCCC3)[nH]c2CCC23CC4CC(CC(C4)C2)C3)c1` [Example 267, N-(3-{[5-(2-Adamantan-1-yl-ethyl)-2-cyclohexyl-1H-imidazole-4-carbonyl]-amino}-phenyl)-malonamic Acid]: 0.112 µM; for `O=C(O)CCc1ccc(NC(=O)c2nc(C3CCCCC3)[nH]c2CCC23CC4CC(CC(C4)C2)C3)cc1` [Example 283, 3-(4-{[5-(2-Adamantan-1-yl-ethyl)-2-cyclohexyl-1H-imidazole-4-carbonyl]-amino}-phenyl)-propionic Acid]: 1.15 µM. In the case of `Cc1ccccc1-c1nc(CCC23CC4CC(CC(C4)C2)C3)c(C=Cc2cccc(C(=O)O)c2)n1C` [Example 276, 3-{2-[5-(2-Adamantan-1-yl-ethyl)-3-methyl-2-o-tolyl-3H-imidazol-4-yl]-vinyl}-benzoic Acid], the Kb was 1.17 µM. As for “(3-{[5-(Adamantan-1-yloxymethyl)-2-cyclohet-4-enyl-1H-imidazole-4-carbonyl]-amino}-phenyl)-acetic Acid [Example 231]”, the “Gastrin pKb” value stood at 7.49. For `O=C(O)/C=C/c1cccc(NC(=O)c2nc(C3CCCCC3)[nH]c2CCC23CC4CC(CC(C4)C2)C3)c1` [Example 259, trans-3-(3-{[5-(2-Adamantan-1-yl-ethyl)-2-cyclohexyl-1H-imidazole-4-carbonyl]-amino}-phenyl)-acrylic Acid], the Kb is 0.0708 µM. Still for that read-out and setting: to `O=C(O)c1cccc(NC(=O)c2c(COC34CC5CC(CC(C5)C3)C4)nc(C3CCCCC3)n2O)c1` [Example 308, 3-{[5-(Adamantan-1-yloxymethyl)-2-cyclohexyl-3-hydroxy-3H-imidazole-4-carbonyl]-amino}-benzoic Acid] belongs 0.0186 µM. For the compound `CCCCCC12CCC(c3nc(C(=O)Nc4cccc(C(=O)O)c4)c(COC45CC6CC(CC(C6)C4)C5)[nH]3)(CC1)CC2` [Example 302, 3-{[5-(Adamantan-1-yloxymethyl)-2-(4-pentyl-bicyclo[2.2.2]oct-1-yl)-1H-imidazole-4-carbonyl]-amino}-benzoic Acid], the Kb is 0.589 µM. For `O=C(O)Cc1cccc(NC(=O)c2nc(C3CC4CCC3C4)[nH]c2CCC23CC4CC(CC(C4)C2)C3)c1` (racemic) [Example 210, (±)-exo-(3-{[5-(2-Adamantan-1-yl-ethyl)-2-bicyclo[2.2.1]hept-2-yl-1H-imidazole-4-carbonyl]-amino}-phenyl)-acetic Acid], the “Gastrin pKb” value was 6.89.

On to `Cc1ccc(NC(=O)c2nc(C3CCCCCCC3)[nH]c2COC23CC4CC(CC(C4)C2)C3)cc1C(=O)O` [Example 298, 5-{[5-(Adamantan-1-yloxymethyl)-2-cyclooctyl-1H-imidazole-4-carbonyl]-amino}-2-methyl-benzoic Acid], for which the Kb was 0.00195 µM.

Turning to `Cc1cc(C)c(-c2nc(C(=O)Nc3cccc(C(=O)O)c3)c(COC34CC5CC(CC(C5)C3)C4)[nH]2)c(C)c1` [Example 226, 3-{[5-(Adamantan-1-yloxymethyl)-2-(2,4,6-trimethyl-phenyl)-1H-imidazole-4-carbonyl]-amino}-benzoic Acid], the Kb was 0.0135 µM.

For `Cc1ccc(NC(=O)c2nc(-c3ccccc3C)[nH]c2COC23CC4CC(CC(C4)C2)C3)cc1C(=O)O` [Example 305, 5-{[5-(Adamantan-1-yloxymethyl)-2-o-tolyl-1H-imidazole-4-carbonyl]-amino}-2-methyl-benzoic Acid], the Kb is 0.01 µM. As to `O=C(O)c1cccc(NC(=O)c2nc(C3CCCCC3)[nH]c2CCC23CCC(CC2)CC3)c1` [Example 175, 3-{[5-(2-Bicyclo[2.2.2]oct-1-yl-ethyl)-2-cyclohexyl-1H-imidazole-4-carbonyl]-amino}-benzoic Acid], the Kb was 0.00295 µM. With `Cc1ccccc1-c1nc(CNc2cccc(C(=O)O)c2)c(CCC23CC4CC(CC(C4)C2)C3)n1C` [Example 279, 3-{[5-(2-Adamantan-1-yl-ethyl)-1-methyl-2-o-tolyl-1H-imidazol-4-ylmethyl]-amino}-benzoic Acid], the Kb was 0.145 µM. As for `Cn1c(C2CCCCC2)nc(C(=O)Nc2cccc(CC(=O)O)c2)c1CCC12CC3CC(CC(C3)C1)C2` [Example 215, (3-{[5-(2-Adamantan-1-yl-ethyl)-2-cyclohexyl-1-methyl-1H-imidazole-4-carbonyl]-amino}-phenyl)-acetic Acid], the Kb was 0.363 µM. On to `O=C(O)c1cccc(NC(=O)c2c(COC34CC5CC(CC(C5)C3)C4)nc(-c3c(Cl)cccc3Cl)n2O)c1` [Example 313, 3-{[5-(Adamantan-1-yloxymethyl)-2-(2,6-dichloro-phenyl)-3-hydroxy-3H-imidazole-4-carbonyl]-amino}-benzoic Acid], for which the Kb is 0.0186 µM. Regarding `O=C(Nc1cccc(CC(O)C(=O)O)c1)c1nc(C2CCCCC2)[nH]c1CCC12CC3CC(CC(C3)C1)C2` (racemic) [Example 260, (±)-(3-{[5-(2-Adamantan-1-yl-ethyl)-2-cyclohexyl-1H-imidazole-4-carbonyl]-amino}-phenyl)-2-hydroxy-propionic Acid], the “Gastrin pKb” value came out at 7.01. For the compound `O=C(O)c1cccc(NC(=O)c2nc(C3C4CC5CC(C4)CC3C5)[nH]c2CCC23CC4CC(CC(C4)C2)C3)c1` (stereo not drawn) [Example 207, 3-{[2-Adamantan-2-yl-5-(2-adamantan-1-yl-ethyl)-1H-imidazole-4-carbonyl]-amino}benzoic Acid], the Kb was 0.0692 µM.

Source of the values: patent US6479531B1, “Gastrin and cholecystokinin receptor ligands” (James Black Foundation Limited, priority 1998, dated 2002).
